Measured values: patent publication US20240199542A1, “SUBSTITUTED PYRROLIDIN-2-ONES, SALTS THEREOF AND THEIR USE AS HERBICIDALLY ACTIVE SUBSTANCES” (Bayer Aktiengesellschaft, priority 2021, published 2024)

Legend:
Assay type in all cases: in vivo
[1] = test system: Alopecurus myosuroides (ALOMY); test: Herbicidal pre-emergence action; settings: graded after ca. 3 weeks
Description: (§1) Seeds of mono- and dicotyledonous weed plants and crop plants were sown, in plastic or organic planting pots, in sandy loam and covered with soil. The compounds according to the invention, formulated in the form of wettable powders (WP) or as emulsifiable concentrates (EC), were applied to the surface of the covering soil as aqueous suspension or emulsion, with the addition of 0.5% of an additive, at an application rate of 600 1 of water/ha (converted).
(§2) Following treatment, the pots were placed in a greenhouse and kept under optimum growth conditions for the test plants. The visual grading of the damage to the test plants was carried out after ca. 3 weeks in comparison to untreated controls (herbicidal effect in percent (%): 100% effect=plants have died off, 0% effect=as control plants).
(§3) Tables A1 to A16, below, show the effects of selected compounds of the general formula (I) according to table 1 on various harmful plants and an application rate corresponding to 1280 g/ha or lower obtained by the experimental procedure mentioned above.

[2] = test system: Avena fatua (AVEFA); test: Herbicidal pre-emergence action; settings: graded after ca. 3 weeks
Description: as §1, §2, §3

[3] = test system: Echinochloa crus-galli (ECHCG); test: Herbicidal pre-emergence action; settings: 1280 g/ha, graded after ca. 3 weeks
Description: as §1, §2, §3

[4] = test system: Lolium multiflorum (LOLMU); test: Herbicidal pre-emergence action; settings: 1280 g/ha, graded after ca. 3 weeks
Description: as §1, §2, §3

[5] = test system: Polygonum convolvulus (POLCO); test: Herbicidal pre-emergence action; settings: graded after ca. 3 weeks
Description: as §1, §2, §3

[6] = test system: Setaria viridis (SETVI); test: Herbicidal pre-emergence action; settings: 1280 g/ha, graded after ca. 3 weeks
Description: as §1, §2, §3

[7] = test system: Alopecurus myosuroides (ALOMY); test: Herbicidal post-emergence action; settings: assessed after ca. 3 weeks
Description: (§4) Seeds of mono- and dicotyledonous weed plants and crop plants were sown, in plastic or organic planting pots, in sandy loam, covered with soil and grown in a greenhouse under controlled growth conditions. 2 to 3 weeks after sowing, the test plants were sprayed in the single-leaf stage. The compounds according to the invention, formulated in form of wettable powders (WP) or as emulsifiable concentrates (EC), were sprayed onto the green plant parts as aqueous suspension or emulsion, with the addition of 0.5% of an additive, at an application rate of 600 1 of water/ha (converted). The test plants were placed in the greenhouse for ca. 3 weeks under optimum growth conditions, and then the effect of the preparations was assessed visually in comparison with untreated controls (herbicidal effect in percent (%): 100% effect=plants have died off, 0% effect=as control plants).
(§5) Tables B1 to B16 below show the effects of selected compounds of the general formula (I) according to table 1 on various harmful plants and an application rate corresponding to 1280 g/ha or 320 g/ha obtained by the experimental procedure mentioned above.

[8] = test system: Avena fatua (AVEFA); test: Herbicidal post-emergence action; settings: assessed after ca. 3 weeks
Description: as §4, §5

[9] = test system: Echinochloa crus-galli (ECHCG); test: Herbicidal post-emergence action; settings: assessed after ca. 3 weeks
Description: as §4, §5

[10] = test system: Polygonum convolvulus (POLCO); test: Herbicidal post-emergence action; settings: assessed after ca. 3 weeks
Description: as §4, §5

[11] = test system: Cyperus esculentus (CYPES); test: Herbicidal pre-emergence action; settings: graded after ca. 3 weeks
Description: as §1, §2, §3

[12] = test system: Veronica persica (VERPE); test: Herbicidal pre-emergence action; settings: graded after ca. 3 weeks
Description: as §1, §2, §3

[13] = test system: Lolium multiflorum (LOLMU); test: Herbicidal post-emergence action; settings: assessed after ca. 3 weeks
Description: as §4, §5

[14] = test system: Setaria viridis (SETVI); test: Herbicidal post-emergence action; settings: 1280 g/ha, assessed after ca. 3 weeks
Description: as §4, §5

[15] = test system: Digitaria sanguinalis (DIGSA); test: Herbicidal post-emergence action; settings: 320 g/ha, assessed after ca. 3 weeks
Description: as §4, §5

[16] = test system: Viola tricolor (VIOTR); test: Herbicidal pre-emergence action; settings: graded after ca. 3 weeks
Description: as §1, §2, §3

[17] = test system: Digitaria sanguinalis (DIGSA); test: Herbicidal pre-emergence action; settings: 320 g/ha, graded after ca. 3 weeks
Description: as §1, §2, §3

[18] = test system: Lolium rigidum (LOLRI); test: Herbicidal pre-emergence action; settings: 320 g/ha, graded after ca. 3 weeks
Description: as §1, §2, §3

[19] = test system: Brassica napus (BRSNW); test: Post-emergence effects on crop plants; settings: application rate 320 g/ha, crop plant Brassica napus (BRSNW)
Description: as §4
Tables D1 to D3 below show the effects of selected compounds of the general formula (I) according to table 1 on various crop plants and an application rate corresponding to 320 g/ha or below obtained by the experimental procedure mentioned above in biology section B.

SMILES	Pre-emergence activity against ALOMY ([1]; 1280 g/ha) [%]	Pre-emergence activity against AVEFA ([2]; 1280 g/ha) [%]	Pre-emergence activity against ECHCG [3] [%]	Pre-emergence activity against LOLMU [4] [%]	Pre-emergence activity against POLCO ([5]; 1280 g/ha) [%]	Pre-emergence activity against SETVI [6] [%]	Post-emergence activity against ALOMY ([7]; 1280 g/ha) [%]	Post-emergence activity against AVEFA ([8]; 1280 g/ha) [%]	Post-emergence activity against ECHCG ([9]; 1280 g/ha) [%]	Post-emergence activity against POLCO ([10]; 1280 g/ha) [%]	Pre-emergence activity against CYPES ([11]; 1280 g/ha) [%]	Post-emergence activity against LOLMU ([13]; 1280 g/ha) [%]	further results
O=C(CC1CCC(=O)N1Cc1cccc(F)c1F)OC1CCCC1 (racemic) [Example I-017]	90	100	90	80	80	90	80	90	90	80			
CC(C)(C)COC(=O)CC1CCC(=O)N1Cc1cccc(F)c1F (racemic) [Example I-018]	90	100	90	90	80	90	80	80	90		80	80	Pre-emergence activity against VERPE ([12]; 1280 g/ha): 90%
C#CCOC(=O)CC1CCC(=O)N1Cc1cccc(F)c1F (racemic) [Example I-023]	90	100	80	80		90	80	80	90		80	80	Pre-emergence activity against VERPE ([12]; 1280 g/ha): 80%; Post-emergence activity against SETVI [14]: 80%
C=CCCOC(=O)CC1CCC(=O)N1Cc1cccc(F)c1F (racemic) [Example I-026]	90	100	90	90		80	80	90	80	80	90	80	
O=C(CC1CCC(=O)N1Cc1cccc(F)c1F)OCCOc1ccccc1 (racemic) [Example I-027]													Pre-emergence activity against ALOMY ([1]; 320 g/ha): 80%; Pre-emergence activity against AVEFA ([2]; 320 g/ha): 90%; Pre-emergence activity against CYPES ([11]; 320 g/ha): 80%; Post-emergence activity against ECHCG ([9]; 320 g/ha): 90%; Post-emergence activity against LOLMU ([13]; 320 g/ha): 80%; Post-emergence activity against POLCO ([10]; 320 g/ha): 80%
COc1ccc(SCCOC(=O)CC2CCC(=O)N2Cc2cccc(F)c2F)cc1 (racemic) [Example I-040]	90	90	80				90		80	80	80	80	Pre-emergence activity against VERPE ([12]; 1280 g/ha): 90%
Cc1ccc(SCCOC(=O)CC2CCC(=O)N2Cc2cccc(F)c2F)cc1 (racemic) [Example I-041]													Pre-emergence activity against ALOMY ([1]; 320 g/ha): 80%; Pre-emergence activity against AVEFA ([2]; 320 g/ha): 90%; Pre-emergence activity against VERPE ([12]; 320 g/ha): 90%; Post-emergence activity against ALOMY ([7]; 320 g/ha): 80%; Post-emergence activity against ECHCG ([9]; 320 g/ha): 90%; Post-emergence activity against LOLMU ([13]; 320 g/ha): 80%; Post-emergence activity against POLCO ([10]; 320 g/ha): 80%
O=C(CC1CCC(=O)N1Cc1cccc(F)c1F)N1CCCC1 (racemic) [Example I-071]	80	90			80			80		80			
CCCNC(=O)CC1CCC(=O)N1Cc1cccc(F)c1F (racemic) [Example I-110]										80			
COC(=O)C(C(=O)CC1CCC(=O)N1Cc1cccc(F)c1F)C(=O)OC (racemic) [Example I-176]	90	100	90	90	80		90	80	90	90		80	Post-emergence activity against SETVI [14]: 80%
Cc1cccc(CN2C(=O)CCC2CC(=O)O)c1C (racemic) [Example I-194]													Post-emergence activity against DIGSA [15]: 90%
O=C(CC1CCC(=O)N1Cc1cccc(F)c1F)Nc1nnc(C(F)F)s1 (racemic) [Example I-195]													Pre-emergence activity against VIOTR ([16]; 320 g/ha): 80%
COC(=O)[C@H](Cc1c[nH]cn1)NC(=O)CC1CCC(=O)N1Cc1cccc(F)c1F (single isomer, unassigned) [Example I-037]	90	100	90	90		90	80	90		80	100		
O=C(O)CC1CCC(=O)N1Cc1cccc(F)c1F (stereo not shown) [Example I-003, 2-[1-[(2,3-difluorophenyl)methyl]-5-oxo-pyrrolidin-2-yl]acetic acid]	90	90	80	90	90	80	90	90	90	80		90	Pre-emergence activity against DIGSA [17]: 90%; Pre-emergence activity against LOLRI [18]: 80%; Pre-emergence activity against VIOTR ([16]; 1280 g/ha): 90%; Post-emergence activity against SETVI [14]: 80%; post-emergence activity against BRSNW [19]: 0%
Cc1ccc(OCCOC(=O)CC2CCC(=O)N2Cc2cccc(F)c2F)cc1 (stereo not shown) [Example I-034, 2-(4-methylphenoxy)ethyl 2-[1-[(2,3-difluorophenyl)methyl]-5-oxo-pyrrolidin-2-yl]acetate]	90	100	80				80		90	80		90	Pre-emergence activity against VERPE ([12]; 1280 g/ha): 100%; Post-emergence activity against SETVI [14]: 80%
O=C(CC1CCC(=O)N1Cc1cccc(F)c1F)NN1CCCC1 (stereo not shown) [Example I-200, 2-[1-[(2,3-difluorophenyl)methyl]-5-oxo-pyrrolidin-2-yl]-N-(pyrrolidin-1-yl)acetamide]													Pre-emergence activity against AVEFA ([2]; 320 g/ha): 100%; Pre-emergence activity against DIGSA [17]: 80%; Pre-emergence activity against POLCO ([5]; 320 g/ha): 90%; Pre-emergence activity against VIOTR ([16]; 320 g/ha): 80%; Post-emergence activity against ALOMY ([7]; 320 g/ha): 80%; Post-emergence activity against AVEFA ([8]; 320 g/ha): 80%; Post-emergence activity against DIGSA [15]: 80%
